Converted amounts (≈) assume the structure as drawn. Like-named read-outs stand apart in the source and are kept apart here.
Tested on: HeLa S-3 cells
Test: HeLa S-3 cell growth inhibition test
Type: cell-based
Conditions: Homo sapiens, 96 h, read-out: minimum growth inhibition concentration (MIC)
Protocol: (a) HeLa S-3 Cell Growth Inhibition Test
A test compound was appropriately diluted with a liquid medium (a minimum essential medium containing a 10% fecal calf serum). The resulting liquid was poured into each well of a 96-well micro titer plate, in an amount of 0.1 ml/well. Then, HeLa S-3 cells were diluted with the same liquid medium so that the cell concentration became 2×10^4 cells/ml, and the resulting liquid was poured into each well of the above plate in an amount of 0.1 ml/well. The resulting plate was allowed to stand in a CO2 gas incubator of 37° C. for 4 days, to effect incubation. After the incubation, the supernatant liquid in each well was removed and fixation by ethanol was effected for 10 minutes. The fixed cells were tinted with a Giemsa's staining solution to determine the minimum growth inhibition concentration (MIC) of test compound for HeLa S-3 cells.

[1] = HeLa S-3 cells, 37° C., 4 days, Giemsa's staining

Compound | MIC [1] [µg/mL] | MIC [µg/mL]
CCc1cc2[nH]c3ccccc3c2c2c1C(=O)N(CCN(C)C)C2=O [compound 4] | 0.2 (≈ 0.596 µM) | –
Cc1c2c(c3c([nH]c4ccccc43)c1C)C(=O)N(CCN(C)C)C2=O [compound 5] | 0.125 (≈ 0.373 µM) | –
Cc1cc2c(c3c4ccccc4n(C)c13)C(=O)N(CCN(C)C)C2=O [compound 6] | 0.8 (≈ 2.39 µM) | –
CN(C)CCN1C(=O)c2cc(-c3ccccc3)c3[nH]c4ccccc4c3c2C1=O [compound 7] | 0.8 (≈ 2.09 µM) | –
CN(C)CCN1C(=O)c2ccc3[nH]c4cc(Cl)ccc4c3c2C1=O [compound 8] | 3.13 (≈ 9.16 µM) | –
CN(C)CCN1C(=O)c2ccc3c(c2C1=O)c1cc(Cl)ccc1n3C [compound 10] | 0.8 (≈ 2.25 µM) | –
CN(C)CCN1C(=O)c2ccc3[nH]c4ccc(F)cc4c3c2C1=O [compound 11] | 3.13 (≈ 9.62 µM) | –
Cc1ccc2[nH]c3ccc4c(c3c2c1)C(=O)N(CCN(C)C)C4=O [compound 12] | 3.13 (≈ 9.74 µM) | –
COc1cccc2c1[nH]c1ccc3c(c12)C(=O)N(CCN(C)C)C3=O [compound 13] | 3.13 (≈ 9.28 µM) | –
COc1ccc2c(c1)[nH]c1ccc3c(c12)C(=O)N(CCN(C)C)C3=O [compound 14] | 1.56 (≈ 4.62 µM) | –
COc1ccc2[nH]c3c(C)cc4c(c3c2c1)C(=O)N(CCN(C)C)C4=O [compound 16] | 0.2 (≈ 0.569 µM) | –
COc1ccc2c(c1)[nH]c1c(C)cc3c(c12)C(=O)N(CCN(C)C)C3=O [compound 18] | 0.8 (≈ 2.28 µM) | –
COc1ccc2c(c1)c1c3c(ccc1n2C)C(=O)N(CCN(C)C)C3=O [compound 19] | 0.4 (≈ 1.14 µM) | –
CCn1c2ccc(OC)cc2c2c3c(ccc21)C(=O)N(CCN(C)C)C3=O [compound 20] | 1.56 (≈ 4.27 µM) | –
COc1ccc2c(c1)c1c3c(ccc1n2C(C)=O)C(=O)N(CCN(C)C)C3=O [compound 21] | 3.13 (≈ 8.25 µM) | –
Cc1cc2[nH]c3ccc(O)cc3c2c2c1C(=O)N(CCN(C)C)C2=O [compound 25] | 0.04 (≈ 0.119 µM) | –
Cc1c2c(c3c([nH]c4ccc(O)cc43)c1C)C(=O)N(CCN(C)C)C2=O [compound 26] | 0.016 (≈ 0.0455 µM) | –
CCn1c2ccc(O)cc2c2c3c(ccc21)C(=O)N(CCN(C)C)C3=O [compound 29] | 3.13 (≈ 8.91 µM) | –
O=C1c2ccc3[nH]c4ccc(O)cc4c3c2C(=O)N1CCN1CCCCC1 [compound 33] | 3.13 (≈ 8.61 µM) | –
COc1ccc2[nH]c3ccc4c(c3c2c1)C(=O)N(CCN1CCN(C)CC1)C4=O [compound 34] | 3.13 (≈ 7.98 µM) | –
CN(C)CCN1C(=O)c2c(O)cc3[nH]c4ccc(O)cc4c3c2C1=O [compound 35] | 2 (≈ 5.89 µM) | –
COc1ccc2[nH]c3cc(OC)c4c(c3c2c1)C(=O)N(CCN(C)C)C4=O [compound 36] | 0.8 (≈ 2.18 µM) | –
COc1cc2c(c3c1[nH]c1ccc(OCc4ccccc4)cc13)C(=O)N(CCN(C)C)C2=O [compound 37] | 0.2 (≈ 0.451 µM) | –
COc1ccc2[nH]c3c(OC)cc4c(c3c2c1)C(=O)N(CCN(C)C)C4=O [compound 40] | 0.2 (≈ 0.544 µM) | –
CN(C)CCN1C(=O)c2cc(O)c3[nH]c4ccc(O)cc4c3c2C1=O [compound 41] | 0.8 (≈ 2.36 µM) | –
Cc1cc2c(c3c1oc1ccccc13)C(=O)N(CCN(C)C)C2=O [compound 43] | 2.5 (≈ 7.76 µM) | –

Compound | MIC [1] [µg/mL] | MIC [µg/mL]
Cc1cc2c(c3c1[nH]c1ccc(OC(=O)N4CCCCC4)cc13)C(=O)N(CCN(C)C)C2=O [compound 44] | – | 0.8 (≈ 1.78 µM)
CC(=O)Oc1ccc2[nH]c3c(C)cc4c(c3c2c1)C(=O)N(CCN(C)C)C4=O [compound 45] | 0.16 (≈ 0.422 µM) | –
Cc1cc(O)cc2c1[nH]c1ccc3c(c12)C(=O)N(CCN(C)C)C3=O [compound 46] | 3.13 (≈ 9.28 µM) | –
Cc1cc2c(c3c1sc1ccccc13)C(=O)N(CCN(C)C)C2=O [compound 47] | 0.2 (≈ 0.591 µM) | –
Cc1cc2c(c3c1S(=O)(=O)c1ccccc1-3)C(=O)N(CCN(C)C)C2=O [compound 48] | 2.5 (≈ 6.75 µM) | –
Cc1cc2c(c3c1[nH]c1ccc(OC(=O)N4CCOCC4)cc13)C(=O)N(CCN(C)C)C2=O [compound 50] | – | 3.13 (≈ 6.95 µM)
CCCc1cc2c(c3c1[nH]c1ccc(O)cc13)C(=O)N(CCN(C)C)C2=O [compound 51] | 0.2 (≈ 0.547 µM) | –
CC(C)c1cc2c(c3c1[nH]c1ccc(O)cc13)C(=O)N(CCN(C)C)C2=O [compound 52] | 0.4 (≈ 1.09 µM) | –
Cc1cc2c(c3c1[nH]c1ccc(O)cc13)C(=O)N(CCN(C(C)C)C(C)C)C2=O [compound 53] | 0.8 (≈ 2.03 µM) | –
CN(C)CCN1C(=O)c2cc(C(C)(C)C)c3[nH]c4ccc(O)cc4c3c2C1=O [compound 54] | 0.31 (≈ 0.817 µM) | –
Cc1cc2c(c3c1[nH]c1ccc(OC(=O)N4CCC(N5CCCCC5)CC4)cc13)C(=O)N(CCN(C)C)C2=O [compound 55] | – | 2.5 (≈ 4.7 µM)
COc1ccc2sc3c(C)cc4c(c3c2c1)C(=O)N(CCN(C)C)C4=O [compound 56] | 0.4 (≈ 1.09 µM) | –
COCc1cc2c(c3c1[nH]c1ccc(O)cc13)C(=O)N(CCN(C)C)C2=O [compound 57] | 1 (≈ 2.72 µM) | –
COc1ccc2[nH]c3c(C4CCC4)cc4c(c3c2c1)C(=O)N(CCN(C)C)C4=O [compound 58] | 1.25 (≈ 3.19 µM) | –
CCCCc1cc2c(c3c1[nH]c1ccc(O)cc13)C(=O)N(CCN(C)C)C2=O [compound 60] | 0.1 (≈ 0.264 µM) | –
CCN(CC)CCN1C(=O)c2cc(C)c3sc4ccc(O)cc4c3c2C1=O [compound 62] | 0.2 (≈ 0.523 µM) | –
CN(C)CCN1C(=O)c2cc(C3CCCCC3)c3[nH]c4ccc(O)cc4c3c2C1=O [compound 63] | 1.25 (≈ 3.08 µM) | –
CNCCN1C(=O)c2cc(C)c3[nH]c4ccc(OC)cc4c3c2C1=O [compound 64] | 0.63 (≈ 1.87 µM) | –
COc1ccc2[nH]c3c(C)cc4c(c3c2c1)C(=O)N(CCN)C4=O [compound 65] | 0.63 (≈ 1.95 µM) | –
CN(C)CCN1C(=O)c2ccc3sc4ccccc4c3c2C1=O [compound 66] | 2.5 (≈ 7.71 µM) | –
CN(C)CCN1C(=O)c2cc(C(F)(F)F)c3[nH]c4ccc(O)cc4c3c2C1=O [compound 67] | 2 (≈ 5.11 µM) | –
Cc1cc2c(c3c1[nH]c1ccc(O)cc13)C(=O)N(CCN)C2=O [compound 68] | 0.4 (≈ 1.29 µM) | –
CN(C)CCN1C(=O)c2cc(C3CCCC3)c3[nH]c4ccc(O)cc4c3c2C1=O [compound 72] | 0.16 (≈ 0.409 µM) | –
CN(C)CCN1C(=O)c2cc(C3(C)CC3)c3[nH]c4ccc(O)cc4c3c2C1=O [compound 73] | 0.8 (≈ 2.12 µM) | –
Cc1c2c(c3c([nH]c4ccc(OC(=O)N5CCC(N6CCCCC6)CC5)cc43)c1C)C(=O)N(CCN(C)C)C2=O [compound 75] | – | 0.08 (≈ 0.147 µM)
Cc1cc2c(c3c1[nH]c1ccc(O)cc13)C(=O)N(CCNC(C)C)C2=O [compound 76] | 0.16 (≈ 0.455 µM) | –

Compound | MIC [1] [µg/mL] | MIC [µg/mL]
CSc1cc2c(c3c1[nH]c1ccc(O)cc13)C(=O)N(CCN(C)C)C2=O [compound 77] | 0.63 (≈ 1.71 µM) | –
CN(C)CCN1C(=O)c2cc(Oc3ccccc3)c3[nH]c4ccc(O)cc4c3c2C1=O [compound 78] | 0.04 (≈ 0.0963 µM) | –
COc1ccc2[nH]c3c(-c4ccc(F)cc4F)cc4c(c3c2c1)C(=O)N(CCN(C)C)C4=O [compound 79] | 1.6 (≈ 3.56 µM) | –
CCOc1cc2c(c3c1[nH]c1ccc(O)cc13)C(=O)N(CCN(C)C)C2=O [compound 80] | 0.08 (≈ 0.218 µM) | –
CCN(C)CCN1C(=O)c2cc(C)c3[nH]c4ccc(O)cc4c3c2C1=O [compound 81] | 0.16 (≈ 0.455 µM) | –
COc1ccc2[nH]c3c(C)cc4c(c3c2c1)C(=O)N(CCNCCO)C4=O [compound 82] | 0.4 (≈ 1.09 µM) | –
Cc1cc2c(c3c1[nH]c1ccc(OC(=O)c4ccncc4)cc13)C(=O)N(CCN(C)C)C2=O [compound 83] | 0.16 (≈ 0.362 µM) | –
CN(C)CCN1C(=O)c2c(-c3ccncc3)cc3[nH]c4ccc(O)cc4c3c2C1=O [compound 84] | 2.5 (≈ 6.24 µM) | –
COc1ccc(Oc2cc3c(c4c2[nH]c2ccc(O)cc24)C(=O)N(CCN(C)C)C3=O)cc1 [compound 85] | 0.08 (≈ 0.18 µM) | –
CN(C)CCN1C(=O)c2cc(Oc3ccc(O)cc3)c3[nH]c4ccc(O)cc4c3c2C1=O [compound 86] | 0.16 (≈ 0.371 µM) | –
COc1ccc2[nH]c3c(C)cc4c(c3c2c1)C(=O)N(CCN1CCOCC1)C4=O [compound 87] | 5 (≈ 12.7 µM) | –
Cc1cc2c(c3c1[nH]c1ccc(O)cc13)C(=O)N(CCN1CCOCC1)C2=O [compound 88] | 2.5 (≈ 6.59 µM) | –
CCN(CC)CCN1C(=O)c2cc(Oc3ccccc3)c3[nH]c4ccc(O)cc4c3c2C1=O [compound 89] | 0.16 (≈ 0.361 µM) | –
Cc1cc2c(c3c1[nH]c1ccc(O)cc13)C(=O)N(CCN1CCN(C)CC1)C2=O [compound 90] | 1.56 (≈ 3.97 µM) | –
Cc1cc2c(c3c1[nH]c1ccc(O)cc13)C(=O)N(CCN(CCO)CCO)C2=O [compound 91] | 1.25 (≈ 3.15 µM) | –
C=Cc1cc2c(c3c1[nH]c1ccc(OC)cc13)C(=O)N(CCN(C)C)C2=O [compound 92] | 0.32 (≈ 0.881 µM) | –
COc1cc2c(cc1Br)[nH]c1c(CN(C)C)cc3c(c12)C(=O)N(CCN(C)C)C3=O [compound 93] | 3.2 (≈ 6.76 µM) | –
Cc1cc2c(c3c1[nH]c1ccc(O)cc13)C(=O)N(CC[N+](C)(C)C)C2=O [compound 94] | 6.25 | –
CNC(=O)n1c2ccc(O)cc2c2c3c(cc(C)c21)C(=O)N(CCN(C)C)C3=O [compound 95] | 1.56 (≈ 3.96 µM) | –
CN(C)CCN1C(=O)c2cc3[nH]c4cccc(F)c4c3cc2C1=O [compound 96] | 6.25 (≈ 19.2 µM) | –
Cc1c2c(cc3c1[nH]c1ccccc13)C(=O)N(CCN(C)C)C2=O [compound 97] | 3.13 (≈ 9.74 µM) | –
Cc1c2c(c(C)c3c1[nH]c1ccccc13)C(=O)N(CCN(C)C)C2=O [compound 98] | 0.8 (≈ 2.39 µM) | –
COc1ccc2[nH]c3c(C)c4c(c(C)c3c2c1)C(=O)N(CCN(C)C)C4=O [compound 99] | 0.8 (≈ 2.19 µM) | –
Cc1c2c(c(C)c3c1[nH]c1ccc(O)cc13)C(=O)N(CCN(C)C)C2=O [compound 100] | 2.5 (≈ 7.11 µM) | –

From US5166204A, “Isoindole derivatives and salts thereof and antitumor agent comprising the same” (Toyama Chemical Co., Ltd., priority 1989, dated 1992)
